Molecules are shown by their SMILES.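 Grown in 96-well plates, cells were treated for 48 hours with each compound at five concentrations. Insufficient inhibition: endpoint recorded as highest concentration tested. GI50 = concentration required for 50% inhibition of growth. TGI marks complete inhibition of growth.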 Bounds are passed on as bounds.

Experiment in all cases: NCI-60 cell line screen, 48 h
Assay [1] relates to SK-MEL-2 melanoma.
Assay [2] has as its system SN12C renal.
The subject of assay [3] is OVCAR-4 ovarian.
Assay [4] relates to SNB-75 CNS.
Assay [5] relates to UO-31 renal.
Assay [6] concerns SK-OV-3 ovarian.
Assay [7] relates to HOP-92 NSCLC.
For assay [8], the system named is HT29 colon.
For assay [9], the system named is 786-0 renal.
Assay [10] relates to K-562 leukemia.

Regarding `O=P(CN1CCOCC1)(c1ccccc1)c1ccccc1`, the TGI in assay [1], in assay [2], in assay [3], in assay [4], in assay [5] and in assay [6] was more than 100 µM each time. The TGI in [7], in assay [8], in assay [9] and in assay [10] was more than 100 µM in each case.
Turning to `COc1cc(-c2nc(-c3ccccc3)c(-c3ccccc3)[nH]2)cc(OC)c1O`, the GI50 was 19.8 µM in assay [1]; 17.6 µM in [2]; 17.6 µM in assay [3]; 11.2 µM in [4]; 13.2 µM in assay [5]; 23.1 µM in assay [6]. The GI50 in assay [7] was 17.6 µM; in assay [8], 17.4 µM; in assay [9] it was 19.9 µM; in [10], 21 µM. Further, the TGI stood at 35.5 µM in assay [1]; 37.5 µM in assay [2]; 56.8 µM in assay [3]; 26.4 µM in assay [4]; 31 µM in [5]; 47.8 µM in assay [6]. In addition, the TGI is 35.4 µM in assay [7], 35.6 µM in [8], 44 µM in [9] and more than 100 µM in assay [10].

Source of the values: PubChem BioAssay (NCI).
